Laboratory results taken from ChEMBL document CHEMBL4033633, “N-(Aroyl)-N-(arylmethyloxy)-α-alanines: Selective inhibitors of aldose reductase” (Bioorg Med Chem, 2017).

Legend:
[1] = target: Aldo-keto reductase family 1 member B1 (Rattus norvegicus, UniProt P07943); experiment: Inhibition of Sprague-Dawley rat lens ALR2 using D,L-glyceraldehyde as substrate preincubated for 10 mins followed by substrate addition measured for 5 mins by spectrophotometric method
[2] = target: Aldo-keto reductase family 1 member A1 (Rattus norvegicus, UniProt P51635); experiment: Inhibition of Sprague-Dawley rat kidney ALR1 using sodium D-glucuronate as substrate by spectrophotometric method
Sequence of Aldo-keto reductase family 1 member A1 (P51635 whole entry, looked up): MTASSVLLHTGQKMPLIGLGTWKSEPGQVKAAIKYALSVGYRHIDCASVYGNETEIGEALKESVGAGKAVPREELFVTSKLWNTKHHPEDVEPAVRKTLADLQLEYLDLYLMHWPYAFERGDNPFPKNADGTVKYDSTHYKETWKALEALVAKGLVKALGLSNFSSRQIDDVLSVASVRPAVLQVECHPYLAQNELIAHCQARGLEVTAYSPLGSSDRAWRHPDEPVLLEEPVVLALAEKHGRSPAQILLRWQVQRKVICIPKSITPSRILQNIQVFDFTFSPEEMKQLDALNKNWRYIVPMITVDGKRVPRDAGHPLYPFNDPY

[3] = target: Aldo-keto reductase family 1 member B1 (Bos taurus, UniProt P16116); experiment: Inhibition of bovine lens ALR2 using D,L-glyceraldehyde as substrate measured for 4 mins by spectrophotometric method

SMILES | IC50 [1] | IC50 [2] | IC50 [3]
CC(C(=O)O)N(OCc1cccc(Cl)c1)C(=O)c1ccccc1 (stereo not drawn) | 12.5 µM | > 100 µM | –
COc1ccc(C(=O)N(CC(=O)O)OCc2ccccc2)cc1 | – | – | 3.5 µM
COc1ccc(C(=O)N(OCc2ccc(Cl)cc2)C(C)C(=O)O)cc1 (stereo not drawn) | 10.1 µM | > 100 µM | –
CC(C(=O)O)N(OCc1ccccc1Cl)C(=O)c1ccccc1 (stereo not drawn) | 4.88 µM | > 100 µM | –
COc1ccc(C(=O)N(OCc2ccccc2Cl)C(C)C(=O)O)cc1 (stereo not drawn) | 2.38 µM | > 100 µM | –
COc1ccc(C(=O)N(CC(=O)O)OCc2ccc(Cl)cc2)cc1 | – | – | 6.3 µM
COc1ccc(C(=O)N(OCc2cccc(Cl)c2)C(C)C(=O)O)cc1 (stereo not drawn) | > 100 µM | > 100 µM | –
CC(C(=O)O)N(OCc1ccc(Cl)cc1)C(=O)c1ccccc1 (stereo not drawn) | 2.69 µM | > 100 µM | –
CC(C(=O)O)N(OCc1ccccc1)C(=O)c1ccccc1 (stereo not drawn) | 46.7 µM | > 100 µM | –
COc1ccc(C(=O)N(OCc2ccccc2)C(C)C(=O)O)cc1 (stereo not drawn) | > 100 µM | > 100 µM | –
